Values of other authors in US9303023B2, “Pyrazole and imidazole derivatives useful as orexin antagonists” (ACTELION PHARMACEUTICALS LTD., priority 2011, dated 2016).

How the values were obtained:
[1] = rat
[2] = rat model
[3] = test system: amyloid-beta (Aβ); settings: after acute sleep restriction, amyloid precursor protein transgenic mice
[4] = mouse model of depression, administered chronically
[5] = rat fear-potentiated startle paradigm
[6] = fasted hungry rats exposed to food odors
[7] = in vivo

| Structure (SMILES) | alertness (active wake and locomotion) [1] | time spent in both REM and NREM sleep [1] | memory function [2] | brain levels of amyloid-beta (Aβ) and Aβ plaque deposition [3] | antidepressant-like activity [4] | activity in conditioned fear model [5] | natural activation induced by orexin A [6] | activity in animal model related to addictions [7] |
| --- | --- | --- | --- | --- | --- | --- | --- | --- |
| CNC(=O)[C@@H](c1ccccc1)N1CCc2cc(OC)c(OC)cc2[C@@H]1CCc1ccc(C(F)(F)F)cc1 [(2R)-2-{(1S)-6,7-dimethoxy-1-[2-(4-trifluoromethyl-phenyl)-ethyl]-3,4-dihydro-1H-isoquinolin-2-yl}-N-methyl-2-phenyl-acetamide] | decrease alertness | dose-dependently increase | enhance memory function | decreased | induce antidepressant-like activity | active | attenuate the natural activation induced by orexin A | – |
| COc1ccc(C[C@H]2c3cc(OC)c(OC)cc3CCN2[C@@H](C(=O)NC(C)C)c2ccccc2)cc1OC [(R)-2-[(S)-1-(3,4-Dimethoxy-benzyl)-6,7-dimethoxy-3,4-dihydro-1H-isoquinolin-2-yl]-N-isopropyl-2-phenyl-acetamide] | – | – | – | – | – | active | – | active |
